Values of other authors in patent US4927638A, “Etoposide solutions” (Bristol-Myers Company, priority 1988, dated 1990).

How the values were obtained:
[1] = with water, ethanol, propylene glycol, isopropyl myristate, diethyl ether, acetone, corn oil, cottonseed oil, etc.
[2] = background statement
[3] = oral (capsules or solution), of that found after intravenous administration; patients

| Structure (SMILES) | miscibility [1] | solubility in water [2] | oral bioavailability [3] |
| --- | --- | --- | --- |
| CO[C@H]1CO[C@H]2[C@@H]1OC[C@H]2OC [Dimethylisosorbide, dimethylisosorbide] | miscible |  |  |
| COc1cc([C@@H]2c3cc4c(cc3[C@@H](O[C@@H]3O[C@@H]5CO[C@@H](C)O[C@H]5[C@H](O)[C@H]3O)[C@H]3COC(=O)[C@H]23)OCO4)cc(OC)c1O [Etoposide, 4'-demethylepipodophyllotoxin-9-(4,6-O(R)-ethylidine-β-D-glucopyranoside)] |  | only sparingly soluble | about 50% |
